The nature of assay [1]: Change of heart frequency and average blood pressure in narcotized rats (maximum effect over 2 hours). The class given is in vivo. As to conditions: Rattus norvegicus, iv, maximum effect over 2 h, hemi-tartrate; for change in vivo at 2 mg/kg: 2 mg/kg i.v.; for change in vivo at 5 mg/kg: 5 mg/kg i.v.; for change in vivo at 10 mg/kg: 10 mg/kg i.v.; for change in vivo at 20 mg/kg: 20 mg/kg i.v.; for change in vivo at 50 mg/kg: 50 mg/kg i.v.

Another assay deals with guinea pig left auricles. Kind of assay: Isolated left auricles stimulated with 1 Hz, inotropic effect. As to conditions: Cavia porcellus, read-out: Maximum effect in % of initial value, LEFT AURICLE INTROPIC; for Emax at 4 µg/mL: 4.0 μg/ml; for Emax at 10 µg/mL: 10.0 μg/ml; for Emax at 2 µg/mL: 2.0 μg/ml; for Emax at 0.5 µg/mL: 0.5 μg/ml; for Emax at 20 µg/mL: 20.0 μg/ml. As for the experimental part: (§1) The test process employed is described, inter alia, in: Staff of the Department of Pharmacology, University of Edinburgh (1970): Pharmacological Experiments on Isolated Preparation, Churchill Livingston, Edinburgh, London and New York, page 112.
(§2) Animals having a body weight of about 500 g, were used and were divided into groups of 4 animals each. The compounds to be tested were dissolved in tyrode solution/sodium chloride solution 50:50 v/v and the desired concentration adjusted in the bath liquid. The experiment was carried out in the known manner.

Assay [2] concerns guinea pig right auricles. As to the kind of experiment: Isolated, spontaneously beating right auricles, chronotropic effect. Conditions: Cavia porcellus, read-out: Maximum effect in % of initial value, RIGHT AURICLE CHRONOTROPIC; for Emax at 2 µg/mL: 2.0 μg/ml; for Emax at 4 µg/mL: 4.0 μg/ml; for Emax at 10 µg/mL: 10.0 μg/ml; for Emax at 0.5 µg/mL: 0.5 μg/ml; for Emax at 20 µg/mL: 20.0 μg/ml. As for the experimental part:
as §1, §2

Setting [3] is: read-out: BLOOD PRESSURE CHANGE AVERAGE PRESSURE (%).
Where [4] appears, read: read-out: CHANGE OF HEART FREQUENCY (%).

Read-outs that look alike come from different tables or passages of the source.

Regarding `COc1cccc2c3c([nH]c12)C(=O)C[C@H]1CCN(C)C[C@H]1C3` (relative stereo) [SI-WG 583], in assay [1] (setting [3]), the change in vivo at 2 mg/kg turned out to be 2.3%, the change in vivo at 5 mg/kg is -11.7% and the change in vivo at 10 mg/kg is -12%. In addition, in assay [1] (setting [4]), the change in vivo at 2 mg/kg is -3.4%, the change in vivo at 5 mg/kg is -10% and the change in vivo at 10 mg/kg is -11.2%. In the assay with guinea pig left auricles, the Emax at 4 µg/mL was -5.1% and the Emax at 10 µg/mL is -14.9%. In addition, in assay [2], the Emax at 2 µg/mL was -16.1%, the Emax at 4 µg/mL was -23.7% and the Emax at 10 µg/mL was -30.3%.
For the compound `CN1CC[C@@H]2CC(=O)c3[nH]c4cc5c(cc4c3C[C@@H]2C1)OCO5` (relative stereo) [SI-WG 562], in assay [1] (setting [3]), the change in vivo at 2 mg/kg is -3.4%, the change in vivo at 5 mg/kg was -9.4% and the change in vivo at 10 mg/kg was -12.4%. In addition, the change in vivo at 10 mg/kg in assay [1] (setting [4]) was -6%. For the same compound, in the assay with guinea pig left auricles, the Emax at 2 µg/mL is -4.1%, the Emax at 4 µg/mL was -6% and the Emax at 10 µg/mL is -7.4%. In assay [2], the Emax at 2 µg/mL was -11.3%, the Emax at 4 µg/mL is -15.7% and the Emax at 10 µg/mL was -31.8%.
As for `Cc1ccc2[nH]c3c(c2c1)C[C@@H]1CN(C)CC[C@@H]1CC3=O` (relative stereo) [SI-WG 379], in assay [1] (setting [3]), the change in vivo at 5 mg/kg was -19.2% and the change in vivo at 10 mg/kg is -22%. Also, the change in vivo at 5 mg/kg in assay [1] (setting [4]) is -17.4%. Moreover, in the assay on guinea pig left auricles, the Emax at 0.5 µg/mL stood at 8%, the Emax at 2 µg/mL worked out at 24%, the Emax at 4 µg/mL worked out at 24% and the Emax at 10 µg/mL turned out to be 23%. In addition, in assay [2], the Emax at 0.5 µg/mL was -14%, the Emax at 2 µg/mL is -35%, the Emax at 4 µg/mL was -46% and the Emax at 10 µg/mL is -81%.
Take `CN1CC=C2CC(=O)c3[nH]c4ccccc4c3CC2C1` (stereo not drawn) [SI-WG 360, 1,3,5,7,12,12a-hexahydro-2-methyl-2H-pyrido [3',4':4,5]-cyclohept [1,2-b] indol-6-one]: in assay [1] (setting [3]), the change in vivo at 2 mg/kg was -10.3%, the change in vivo at 5 mg/kg is -23% and the change in vivo at 10 mg/kg is -34.2%. Besides, in assay [1] (setting [4]), the change in vivo at 2 mg/kg was -10.7%, the change in vivo at 5 mg/kg was -14.3% and the change in vivo at 10 mg/kg is -22.2%. Besides, in the assay on guinea pig left auricles, the Emax at 2 µg/mL was determined as 17%, the Emax at 10 µg/mL stood at 39% and the Emax at 20 µg/mL worked out at 50%. Besides, in assay [2], the Emax at 2 µg/mL was -10%, the Emax at 10 µg/mL is -29% and the Emax at 20 µg/mL is -41%.
As for `CN1CC[C@@H]2CC(=O)c3[nH]c4ccc(O)cc4c3C[C@@H]2C1` (relative stereo) [SI-WG 571, 1.3.4.4a,5,7,12, 12a-octahydro-10-hydroxy-2-methyl-2H-pyrido[3',4':4,5] cyclohept [1,2-b] indol-6-one], in assay [1] (setting [4]), the change in vivo at 2 mg/kg is -1.4% and the change in vivo at 10 mg/kg was -11.6%. Besides, the change in vivo at 10 mg/kg in assay [1] (setting [3]) is -14.1%. For the same compound, in the assay with guinea pig left auricles, the Emax at 4 µg/mL was -3.9% and the Emax at 10 µg/mL is -11.4%. In assay [2], the Emax at 2 µg/mL is -3.1%, the Emax at 4 µg/mL was -8.4% and the Emax at 10 µg/mL was -9.1%.
For the compound `O=C1C[C@H]2CCNC[C@H]2Cc2c1[nH]c1ccccc21` (relative stereo) [SI-WG 422], in assay [1] (setting [4]), the change in vivo at 10 mg/kg was -12.8% and the change in vivo at 20 mg/kg is -15.5%. The change in vivo at 20 mg/kg in assay [1] (setting [3]) is 21.8%. Moreover, in the assay on guinea pig left auricles, the Emax at 0.5 µg/mL was -4.2%, the Emax at 2 µg/mL was -12.2% and the Emax at 4 µg/mL is -14.9%. For the same compound, in assay [2], the Emax at 0.5 µg/mL is -6.7%, the Emax at 2 µg/mL was -19.3% and the Emax at 4 µg/mL was -36.1%.
For the compound `COc1ccc2[nH]c3c(c2c1)C[C@@H]1CN(C)CC[C@@H]1CC3=O` (relative stereo) [SI-WG 449], in assay [1] (setting [3]), the change in vivo at 2 mg/kg is -16%, the change in vivo at 5 mg/kg is -10% and the change in vivo at 10 mg/kg is -22%. In assay [1] (setting [4]), the change in vivo at 5 mg/kg was -12% and the change in vivo at 10 mg/kg is -17%. Further, in the assay with guinea pig left auricles, the Emax at 2 µg/mL is 16%, the Emax at 10 µg/mL was 23% and the Emax at 20 µg/mL came to 20%. Further, in assay [2], the Emax at 2 µg/mL is -19%, the Emax at 10 µg/mL is -40% and the Emax at 20 µg/mL was -57%.
Turning to `CN1CC[C@@H]2CC(=O)c3[nH]c4ccc(F)cc4c3C[C@@H]2C1` (relative stereo) [SI-WG 419], in assay [1] (setting [3]), the change in vivo at 2 mg/kg was -10.6%, the change in vivo at 5 mg/kg is -21.4% and the change in vivo at 10 mg/kg is -26.7%. Further, in assay [1] (setting [4]), the change in vivo at 2 mg/kg was -7.5%, the change in vivo at 5 mg/kg is -12.1% and the change in vivo at 10 mg/kg is -22.8%. In the assay on guinea pig left auricles, the Emax at 0.5 µg/mL is 6%, the Emax at 2 µg/mL came to 6%, the Emax at 4 µg/mL was -7% and the Emax at 10 µg/mL is -27%. For the same compound, in assay [2], the Emax at 0.5 µg/mL was -18%, the Emax at 2 µg/mL was -30%, the Emax at 4 µg/mL was -42% and the Emax at 10 µg/mL is -80%.
Turning to `COc1cc2[nH]c3c(c2c(OC)c1OC)C[C@@H]1CN(C)CC[C@@H]1CC3=O` (relative stereo) [SI-WG 587], in assay [1] (setting [3]), the change in vivo at 5 mg/kg was 12.2% and the change in vivo at 10 mg/kg is 11.6%. Moreover, the change in vivo at 10 mg/kg in assay [1] (setting [4]) is -4.8%. In the assay on guinea pig left auricles, the Emax at 4 µg/mL came out at 14.9%, the Emax at 10 µg/mL was found to be 29.4% and the Emax at 20 µg/mL is 31.8%. In assay [2], the Emax at 4 µg/mL was -10.4%, the Emax at 10 µg/mL is -13.9% and the Emax at 20 µg/mL is -19.8%.
`CC(=O)c1[nH]c2ccccc2c1CC1CN(C)CCC1=O` (stereo not drawn) [SI-WG 331, 2-Acetyl-3-(N.methyl-4-'-piperidon-3'-ylmethyl)-indole]: in assay [1] (setting [3]), the change in vivo at 20 mg/kg was -18.4% and the change in vivo at 50 mg/kg is -29.1%. For the same compound, in assay [1] (setting [4]), the change in vivo at 20 mg/kg is -9.7% and the change in vivo at 50 mg/kg was -19.3%. Besides, in the assay on guinea pig left auricles, the Emax at 2 µg/mL turned out to be 8%, the Emax at 10 µg/mL amounted to 14% and the Emax at 20 µg/mL amounted to 31%. In addition, in assay [2], the Emax at 2 µg/mL was -7%, the Emax at 10 µg/mL was -12% and the Emax at 20 µg/mL is -23%.
In the case of `CN1CC[C@@H]2CC(=O)c3[nH]c4c(O)cccc4c3C[C@@H]2C1` (relative stereo) [SI-WG 625], the results for the change in vivo at 5 mg/kg in assay [1] (setting [3]) and in assay [1] (setting [4]) were -9.4% and -8.4%, respectively. Besides, the results for the Emax at 4 µg/mL (in the assay with guinea pig left auricles; in assay [2]) were -4.7% and -17.4%, respectively. For the same compound, the Emax at 10 µg/mL with guinea pig left auricles is -8.9%; in assay [2], -26.3%. Besides, the Emax at 2 µg/mL in assay [2] is -13.8%.
For `CN1CC[C@@H]2CC(=O)c3[nH]c4ccc(C#N)cc4c3C[C@@H]2C1` (relative stereo) [SI-WG 600], in assay [1] (setting [3]), the change in vivo at 2 mg/kg worked out at 9.5%, the change in vivo at 5 mg/kg is -6% and the change in vivo at 10 mg/kg is 4.8%. In assay [1] (setting [4]), the change in vivo at 5 mg/kg is -8.9% and the change in vivo at 10 mg/kg was -9.4%. In the assay on guinea pig left auricles, the Emax at 2 µg/mL was 12.4%, the Emax at 4 µg/mL turned out to be 23% and the Emax at 10 µg/mL came to 30%. Besides, in assay [2], the Emax at 2 µg/mL was -25.2%, the Emax at 4 µg/mL is -32.7% and the Emax at 10 µg/mL was -49.1%.
Turning to `CN1CC[C@@H]2CC(=O)c3c(c4ccccc4n3C)C[C@@H]2C1` (relative stereo) [SI-WG 591], in the assay with guinea pig left auricles, the Emax at 2 µg/mL was 11.8%, the Emax at 4 µg/mL worked out at 12% and the Emax at 10 µg/mL came out at 27.4%. Also, in assay [2], the Emax at 2 µg/mL was -20%, the Emax at 4 µg/mL is -31.9% and the Emax at 10 µg/mL is -43.9%.

The values above are taken from patent publication US5159080A, “Indole compounds, a process for their preparation, and pharmaceutical compositions containing them” (Madaus AG, priority 1988, dated 1992).
